SMILES strings stand for the structures.

A short description of this experiment: Inhibition of p37 in Vaccinia virus Copenhagen infected in African green monkey Vero cells assessed as reduction in viral reproduction incubated for 4 days by neutral red dye based colorimetric analysis.
As usually defined, the IC50 is the midpoint of a concentration-inhibition curve. For the molecule `O=C(NC12CC3CC(CC(C3)C1)C2)c1ccc(C(F)(F)F)cc1`, the IC50 was 0.133 µM.
The same measure for `CCC12CC3CC(C1)CC(NC(=O)c1ccc(C(F)(F)F)cc1)(C3)C2`: 4.1 µM; for `CN(C(=O)c1ccc(C(F)(F)F)cc1)C12CC3CC(CC(C3)C1)C2`: 4.85 µM.
`O=C(NCC12CC3CC(CC(C3)C1)C2)c1ccc(C(F)(F)F)cc1`: the IC50 was found to be 0.27 µM.
The same measure for `O=C(NCC12CC3CC(CC(C3)C1)C2)c1ccc(Br)cc1`: 8.3 µM; for `O=C(NC1C2CC3CC(C2)CC1C3)c1ccc(Br)cc1` (stereo not drawn): 3.06 µM; for `O=C(NC1C2CC3CC(C2)CC1C3)c1ccc(C(F)(F)F)cc1` (stereo not drawn): 0.216 µM.
Under `O=C(NNC(=O)C12CC3CC(CC(C3)C1)C2)c1ccc(C(F)(F)F)cc1` stands 1.07 µM; under `CC12CC3CC(C)(C1)CC(C(=O)NNC(=O)c1ccc(C(F)(F)F)cc1)(C3)C2`, 30.9 µM.
For the molecule `CCC12CC3CC(C1)CC(C(=O)NNC(=O)c1ccc(C(F)(F)F)cc1)(C3)C2`, the concentration for half-maximal inhibition (IC50) was found to be 12.5 µM.
Take `O=C(NNC(=O)c1ccc(C(F)(F)F)cc1)NC12CC3CC(CC(C3)C1)C2`: the IC50 stood at 36.3 µM.
In the case of `O=C(NN=C1C2CC3CC(C2)CC1C3)c1ccc(C(F)(F)F)cc1`, the IC50 was 198 µM.
With `O=C(NNC1C2CC3CC(C2)CC1C3)c1ccc(C(F)(F)F)cc1` (stereo not drawn), the IC50 worked out at 2.8 µM.
Take `O=C(NNC1C2CC3CC1CC(Cl)(C3)C2)c1ccc(C(F)(F)F)cc1` (stereo not drawn): the IC50 is 3.52 µM.
As to `CC(NNC(=O)c1ccc(C(F)(F)F)cc1)C12CC3CC(CC(C3)C1)C2` (stereo not drawn), the IC50 is 0.515 µM.
Consider `CCC12CC3CC(C1)CC(NNC(=O)c1ccc(C(F)(F)F)cc1)(C3)C2`, for which the IC50 is 1.66 µM.
On to `CC12CC3CC(C1)CC(NC(=O)c1ccc(C(F)(F)F)cc1)(C3)C2`, for which the IC50 came to 8.98 µM.
On to `O=C(NN1C(=O)[C@@H]2[C@@H]3C=C[C@@H]([C@H]4C[C@@H]34)[C@@H]2C1=O)c1ccc(C(F)(F)F)cc1` [Tecovirimat], for which the IC50 is 0.0027 µM.

The values above are taken from BindingDB's records for doi:10.1016/j.ejmech.2021.113485 (Samara State Technical University, 2021).
